Measurements reported in ChEMBL document CHEMBL3885881, “DrugMatrix”.

Species on record: Rattus norvegicus
Experiment: DrugMatrix - Regimen: Daily Repeat
Format: toxicity, organism-based, Sprague-Dawley
Set-up: regimen Daily Repeat, gender Male, age 6-8 weeks
Settings: in vivo, po, route oral GAVAGE, vehicle .5 % CMC; for ABSOLUTE BASOPHIL / ABSOLUTE EOSINOPHIL / ABSOLUTE LYMPHOCYTE / ABSOLUTE MONOCYTE / ABSOLUTE SEGMENTED NEUTROPHIL / BASOPHIL / EOSINOPHIL / ERYTHROCYTE COUNT / HEMATOCRIT / HEMOGLOBIN / LEUKOCYTE COUNT / LYMPHOCYTE / MEAN CORPUSCULAR HEMOGLOBIN / MEAN CORPUSCULAR HEMOGLOBIN CONCENTRATION / MEAN CORPUSCULAR VOLUME / MONOCYTE / NEUTROPHIL / NUCLEATED RED BLOOD CELLS / PLATELET COUNT: tissue Blood; for ALANINE AMINOTRANSFERASE / ALBUMIN / ALKALINE PHOSPHATASE / ASPARTATE AMINOTRANSFERASE / BLOOD UREA NITROGEN / CARBON DIOXIDE / CHLORIDE / CHOLESTEROL / CREATINE PHOSPHOKINASE / CREATININE / GLUCOSE / LACTATE DEHYDROGENASE / LIPASE / PHOSPHORUS / POTASSIUM / SODIUM / TOTAL BILIRUBIN / TOTAL PROTEIN / URIC ACID: tissue Plasma
[1] = 25 mg/kg, 120 h, dose level Low, time 5 day
[2] = 1400 mg/kg, 72 h, dose level High, time 3 day
[3] = 1400 mg/kg, 120 h, dose level High, time 5 day

C[C@](O)(CS(=O)(=O)c1ccc(F)cc1)C(=O)Nc1ccc(C#N)c(C(F)(F)F)c1 [(R)-BICALUTAMIDE]
ABSOLUTE BASOPHIL [1]: 0 CELLS/uL | ABSOLUTE EOSINOPHIL [1]: 40.67 CELLS/uL | ABSOLUTE LYMPHOCYTE [1]: 7260.33 CELLS/uL | ABSOLUTE MONOCYTE [1]: 84 CELLS/uL | ABSOLUTE SEGMENTED NEUTROPHIL [1]: 381.67 CELLS/uL | BASOPHIL [1]: 0% | EOSINOPHIL [1]: 0.67% | ERYTHROCYTE COUNT [1]: 5.41 x10E6/uL | HEMATOCRIT [1]: 34.23% | HEMOGLOBIN [1]: 13.2 G/DL | LEUKOCYTE COUNT [1]: 7.77 x10E3/uL | LYMPHOCYTE [1]: 92.33% | MEAN CORPUSCULAR HEMOGLOBIN [1]: 24.4 pg | MEAN CORPUSCULAR HEMOGLOBIN CONCENTRATION [1]: 38.6 G/DL | MEAN CORPUSCULAR VOLUME [1]: 63.13 fL | MONOCYTE [1]: 1.33% | NEUTROPHIL [1]: 5.67% | NUCLEATED RED BLOOD CELLS [1]: 0 /100WBC | PLATELET COUNT [1]: 1128.67 x10E3/uL | ALANINE AMINOTRANSFERASE [1]: 51.67 u/L | ALBUMIN [1]: 4.37 G/DL | ALKALINE PHOSPHATASE [1]: 358.33 u/L | ASPARTATE AMINOTRANSFERASE [1]: 82.33 u/L | BLOOD UREA NITROGEN [1]: 14.67 mg/dL | CARBON DIOXIDE [1]: 26.67 mmol/L | CHLORIDE [1]: 103.67 MEQ/L | CHOLESTEROL [1]: 67.33 mg/dL | CREATINE PHOSPHOKINASE [1]: 179.33 u/L | CREATININE [1]: 0.2 mg/dL | GLUCOSE [1]: 149.33 mg/dL | LACTATE DEHYDROGENASE [1]: 119.67 u/L | LIPASE [1]: 10 u/L | PHOSPHORUS [1]: 11.83 mg/dL | POTASSIUM [1]: 6.23 MEQ/L | SODIUM [1]: 148.07 MEQ/L | TOTAL BILIRUBIN [1]: 0.2 mg/dL | TOTAL PROTEIN [1]: 6.5 G/DL | URIC ACID [1]: 1.37 mg/dL | ABSOLUTE BASOPHIL [2]: 0 CELLS/uL | ABSOLUTE EOSINOPHIL [2]: 0 CELLS/uL | ABSOLUTE LYMPHOCYTE [2]: 11798 CELLS/uL | ABSOLUTE MONOCYTE [2]: 169.33 CELLS/uL | ABSOLUTE SEGMENTED NEUTROPHIL [2]: 799.33 CELLS/uL | BASOPHIL [2]: 0% | EOSINOPHIL [2]: 0% | ERYTHROCYTE COUNT [2]: 5.52 x10E6/uL | HEMATOCRIT [2]: 36.3% | HEMOGLOBIN [2]: 14.03 G/DL | LEUKOCYTE COUNT [2]: 12.77 x10E3/uL | LYMPHOCYTE [2]: 92.67% | MEAN CORPUSCULAR HEMOGLOBIN [2]: 25.5 pg | MEAN CORPUSCULAR HEMOGLOBIN CONCENTRATION [2]: 38.63 G/DL | MEAN CORPUSCULAR VOLUME [2]: 65.97 fL | MONOCYTE [2]: 1.33% | NEUTROPHIL [2]: 6% | NUCLEATED RED BLOOD CELLS [2]: 0 /100WBC | PLATELET COUNT [2]: 1068 x10E3/uL | ALANINE AMINOTRANSFERASE [2]: 48.67 u/L | ALBUMIN [2]: 4.33 G/DL | ALKALINE PHOSPHATASE [2]: 367.67 u/L | ASPARTATE AMINOTRANSFERASE [2]: 67 u/L | BLOOD UREA NITROGEN [2]: 16.67 mg/dL | CARBON DIOXIDE [2]: 23 mmol/L | CHLORIDE [2]: 102 MEQ/L | CHOLESTEROL [2]: 87.33 mg/dL | CREATINE PHOSPHOKINASE [2]: 182.33 u/L | CREATININE [2]: 0.19 mg/dL | GLUCOSE [2]: 155.33 mg/dL | LACTATE DEHYDROGENASE [2]: 84.67 u/L | LIPASE [2]: 11 u/L | PHOSPHORUS [2]: 11.8 mg/dL | POTASSIUM [2]: 7.17 MEQ/L | SODIUM [2]: 143.37 MEQ/L | TOTAL BILIRUBIN [2]: 0.2 mg/dL | TOTAL PROTEIN [2]: 6.23 G/DL | URIC ACID [2]: 1.57 mg/dL | ABSOLUTE BASOPHIL [3]: 0 CELLS/uL | ABSOLUTE EOSINOPHIL [3]: 139 CELLS/uL | ABSOLUTE LYMPHOCYTE [3]: 14390.33 CELLS/uL | ABSOLUTE MONOCYTE [3]: 36 CELLS/uL | ABSOLUTE SEGMENTED NEUTROPHIL [3]: 934.67 CELLS/uL | BASOPHIL [3]: 0% | EOSINOPHIL [3]: 1% | ERYTHROCYTE COUNT [3]: 5.54 x10E6/uL | HEMATOCRIT [3]: 34.93% | HEMOGLOBIN [3]: 13.77 G/DL | LEUKOCYTE COUNT [3]: 15.5 x10E3/uL | LYMPHOCYTE [3]: 92.67% | MEAN CORPUSCULAR HEMOGLOBIN [3]: 24.87 pg | MEAN CORPUSCULAR HEMOGLOBIN CONCENTRATION [3]: 39.4 G/DL | MEAN CORPUSCULAR VOLUME [3]: 63.03 fL | MONOCYTE [3]: 0.33% | NEUTROPHIL [3]: 6% | NUCLEATED RED BLOOD CELLS [3]: 0.33 /100WBC | PLATELET COUNT [3]: 1189.67 x10E3/uL | ALANINE AMINOTRANSFERASE [3]: 51.33 u/L | ALBUMIN [3]: 4.37 G/DL | ALKALINE PHOSPHATASE [3]: 367.67 u/L | ASPARTATE AMINOTRANSFERASE [3]: 74.33 u/L | BLOOD UREA NITROGEN [3]: 16.67 mg/dL | CARBON DIOXIDE [3]: 27.33 mmol/L | CHLORIDE [3]: 102 MEQ/L | CHOLESTEROL [3]: 87.67 mg/dL | CREATINE PHOSPHOKINASE [3]: 121.67 u/L | CREATININE [3]: 0.22 mg/dL | GLUCOSE [3]: 150.33 mg/dL | LACTATE DEHYDROGENASE [3]: 70.67 u/L | LIPASE [3]: 10 u/L | PHOSPHORUS [3]: 12.73 mg/dL | POTASSIUM [3]: 6.81 MEQ/L | SODIUM [3]: 146.27 MEQ/L | TOTAL BILIRUBIN [3]: 0.2 mg/dL | TOTAL PROTEIN [3]: 6.3 G/DL | URIC ACID [3]: 1.8 mg/dL
